Assay results: patent publication US8524911B2, “3-arylamino pyridine derivatives” (Merck Serono SA, priority 2004, dated 2013)

Experiments:
human MEK1 = human MEK1 (Homo sapiens, UniProt Q02750); test: MEK-1 Enzyme Assay (LANCE-HTRF); format: biochemical; conditions: 100 nM MEK1, 15 μM ATP, 300 nM ERK2, two hours; read-out: MEK inhibition
Experimental: Assay 1: MEK-1 Enzyme Assay (LANCE-HTRF)
The activity of the compounds of the present invitation may be determined by the following procedure; Inhibition of human MEK1 kinase activity was monitored with a homogenous, fluorescence based assay. The assay uses time resolved fluorescence resonance energy transfer to probe for phosphorylation of ERK1 by MEK1. The assay is carried out in low volume 96 well microtiterplates. […] After two hours, 5 nM Europium-anti-PY20 (Perkin Elmer) and 50 nM Anti-GST-Allophycocyanin (CisBio) in buffer containing 50 mM EDTA and 0.05% BSA are added and the reaction incubated for one hour in the dark. Time-resolved fluorescence is measured using a LJL-Analyst (Molecular Devices) with an excitation wavelength of 340 nm and an emission wavelength of 665 nm. The final concentration of DMSO is 2%.

[1] = test system: human melanoma A375 cells; test: Tumor cell proliferation assay (ATP Lite), A375; format: cell-based; conditions: A-375, 96 h, 4 days
Experimental: (§1) Assay 2: Tumor Cell Proliferation Assays (ATP Lite)
(§2) Murine colon C26, human melanoma A375 and MeI5 or human pancreatic MiaPaCa-2 cells were plated in 96 well Corning white plates (1500 cells/well for C26, and 2000 cells/well for A375, and MiaPaCa-2) and cultured overnight at 37° C. in 5% CO2. Inhibitors were serially diluted in 100% DMSO and subsequently added to cells to reach a final concentration of 0.25% DMSO. The cells were incubated for 4 days in the presence of test compounds in cell growth media (DMEM with 10% fetal bovine serum, 2 mM glutamine for C26, and MiaPaCa-2, and RPMI with 10% fetal bovine serum, 2 mM glutamine for A375). Cell proliferation was quantitated using the ATP lite cell proliferation kit (Packard). Columns 4-6 show the concentration of compounds required to induce 50% cell death (IC50 in μM) of […]. With “+” meaning 3 μM<IC50≦10 μM and “++” IC50≦3 μM and “n.d.” means not determined. Few compounds were also tested on human melanoma cell MeI5.

[2] = test system: human pancreatic MiaPaCa-2 cells; test: Tumor cell proliferation assay (ATP Lite), MiaPaCa-2; format: cell-based; conditions: MIA PaCa-2, 96 h, 4 days
Experimental: as §1, §2

Murine colon C26 cells = test: Tumor cell proliferation assay (ATP Lite), C26; format: cell-based; conditions: Mus musculus, 96 h, 4 days
Experimental: as §1, §2

Sequence of human MEK1 (Q02750 whole entry): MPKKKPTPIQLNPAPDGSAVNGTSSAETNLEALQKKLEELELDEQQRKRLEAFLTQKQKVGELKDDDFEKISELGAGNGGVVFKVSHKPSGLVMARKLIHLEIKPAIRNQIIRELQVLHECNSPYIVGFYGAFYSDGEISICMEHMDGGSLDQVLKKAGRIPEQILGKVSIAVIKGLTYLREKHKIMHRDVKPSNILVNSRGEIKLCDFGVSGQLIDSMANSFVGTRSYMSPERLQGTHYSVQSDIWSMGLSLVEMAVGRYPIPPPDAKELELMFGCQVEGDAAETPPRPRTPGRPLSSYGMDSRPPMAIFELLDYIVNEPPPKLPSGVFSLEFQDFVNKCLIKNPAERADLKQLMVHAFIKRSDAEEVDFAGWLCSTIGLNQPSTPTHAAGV

SMILES | IC50 (human MEK1) [nM] | other results
O=C(NC1CCc2ccccc21)c1ccncc1Nc1ccc(I)cc1F (stereo not shown) [Example 59, N-(2,3-dihydro-1H-inden-1-yl)-3-[(2-fluoro-4-iodophenyl)amino]-isonicotinamide] | 1000 to 10000 | –
O=C(NO)c1ccncc1Nc1ccc(I)cc1F [Example 66, 3-[(2-fluoro-4-iodophenyl)amino]-N-hydroxyisonicotinamide] | < 1000 | IC50 [1]: ≤ 3 µM
COc1ccc(-c2cc(C(=O)O)c(Nc3ccc(I)cc3F)cn2)cc1 [Example 52, 5-[(2-fluoro-4-iodophenyl)amino]-2-(4-methoxyphenyl)isonicotinic acid] | 1000 to 10000 | –
CN(C)c1ccc(-c2cc(C(=O)O)c(Nc3ccc(I)cc3F)cn2)cc1 [Example 57, 2-[4-(dimethylamino)phenyl]-5-[(2-fluoro-4-iodophenyl)amino]-isonicotinic acid] | 1000 to 10000 | –
CC1(C)OC[C@@H](CONC(=O)c2ccncc2Nc2ccc(I)cc2F)O1 [Example 63, N-{[(4S)-2,2-dimethyl-1,3-dioxolan-4-yl]methoxy}-3-[(2-fluoro-4-iodophenyl)amino]isonicotinamide] | < 1000 | IC50 [1]: ≤ 3 µM
CONC(=O)c1ccncc1Nc1ccc(I)cc1Cl [Example 80, N-methoxy-3-(2-chloro-4-iodo-phenylamino)-isonicotinamide] | < 1000 | IC50 [2]: 3 to 10 µM; IC50 [1]: ≤ 3 µM
O=C(NCc1cc(F)cc(C(F)(F)F)c1)c1ccncc1Nc1ccc(I)cc1F [Example 105, 3-[(2-fluoro-4-iodophenyl)amino]-N-[3-fluoro-5-(trifluoromethyl)-benzyl]isonicotinamide] | < 1000 | –
O=C(NOC1CCCCO1)c1ccncc1Nc1ccc(I)cc1F (stereo not shown) [Example 84, 3-[(2-fluoro-4-iodophenyl)amino]-N-(tetrahydro-2H-pyran-2-yloxy)-isonicotin-amide] | < 1000 | IC50 [1]: ≤ 3 µM; IC50 (Murine colon C26 cells): 3 to 10 µM
CN(CCO)C(=O)c1ccncc1Nc1ccc(I)cc1F [Example 37] | < 1000 | –
O=C(O)c1ccncc1Nc1ccc(Cl)cc1Cl [Example 1, 3-[(2,4-Dichlorophenyl)amino]isonicotinic acid] | < 1000 | –
Cc1cc(I)ccc1Nc1cnccc1C(=O)O [Example 3, 3-[(4-Iodo-2-methylphenyl)amino]isonicotinic acid] | < 1000 | –
CCONC(=O)c1cc[n+]([O-])cc1Nc1ccc(Br)cc1C [Example 6, 3-[(4-Bromo-2-methylphenyl)amino]-N-ethoxyisonicotinamide 1-oxide] | 1000 to 10000 | –
O=C(NCc1cccc(I)c1)c1ccncc1Nc1ccc(I)cc1F [Example 94, 3-[(2-fluoro-4-iodophenyl)amino]-N-(3-iodobenzyl)isonicotin-amide] | < 1000 | IC50 [1]: 3 to 10 µM
O=C(NOCc1c(F)c(F)c(F)c(F)c1F)c1ccncc1Nc1ccc(I)cc1F [Example 103, 3-[(2-fluoro-4-iodophenyl)amino]-N-[(pentafluorobenzyl)oxy]-isonicotinamide] | < 1000 | –
CC(C)CONC(=O)c1ccncc1Nc1ccc(I)cc1Cl [Example 78] | < 1000 | IC50 [1]: ≤ 3 µM; IC50 (Murine colon C26 cells): 3 to 10 µM
CC1(C)OC[C@H](CONC(=O)c2cc(Br)ncc2Nc2ccc(I)cc2F)O1 [Example 69, 2-bromo-N-{[(4R)-2,2-dimethyl-1,3-dioxolan-4-yl]methoxy}-5-[(2-fluoro-4-iodophenyl)amino]isonicotinamide] | < 1000 | IC50 [1]: ≤ 3 µM; IC50 (Murine colon C26 cells): 3 to 10 µM
Cc1nccc(C(=O)O)c1Nc1ccc(I)cc1F [Example 95, 3-(2-Fluoro-4-iodo-phenylamino)-2-methyl-isonicotinic acid] | < 1000 | –
CC1(C)OC[C@H](CONC(=O)c2ccnc(Cl)c2Nc2ccc(I)cc2F)O1 [Example 38, 2-Chloro-N-{[(4R)-2,2-dimethyl-1,3-dioxolan-4-yl]methoxy}-3-(2-fluoro-4-iodo-phenylamino)-isonicotinamide] | 1000 to 10000 | –
Cc1cc(Br)ccc1Nc1cnccc1C(=O)O [Example 2, 3-[(4-Bromo-2-methylphenyl)amino]isonicotinic acid] | < 1000 | –
C#Cc1ccc(Nc2cnccc2C(=O)NOC[C@H](O)CO)c(Cl)c1 [Example 54, 3-(2-Chloro-4-ethynyl-phenylamino)-N-(2,3-dihydroxy-propoxy)-isonicotinamide] | 1000 to 10000 | IC50 [1]: 3 to 10 µM
O=C(NC1CCCCC1)c1ccncc1Nc1ccc(I)cc1F [Example 61, N-cyclohexyl-3-[(2-fluoro-4-iodophenyl)amino]isonicotinamide] | < 1000 | IC50 [1]: 3 to 10 µM
CC(C)C(C)NC(=O)c1ccncc1Nc1ccc(I)cc1F (stereo not shown) [Example 62, N-(1,2-dimethylpropyl)-3-[(2-fluoro-4-iodophenyl)amino]-isonicotinamide] | < 1000 | IC50 [1]: ≤ 3 µM; IC50 (Murine colon C26 cells): 3 to 10 µM
COc1cccc(NC(=O)c2ccncc2Nc2ccc(I)cc2F)c1 [Example 104, 3-[(2-fluoro-4-iodophenyl)amino]-N-(3-methoxyphenyl)-isonicotinamide] | < 1000 | –
CC1(C)OC[C@H](CONC(=O)c2cc[n+]([O-])cc2Nc2ccc(I)cc2F)O1 [Example 89, N-(2,2-Dimethyl-[1,3]dioxolan-4-ylmethoxy)-3-(2-fluoro-4-iodo-phenylamino)-1-oxy-isonicotinamide] | 1000 to 10000 | –
O=C(O)c1ccncc1Nc1ccc(I)cc1 [Example 73, 3-(4-iodo-phenylamino)-isonicotinic acid] | < 1000 | –
O=C(NCc1cccc(O)c1)c1ccncc1Nc1ccc(I)cc1F [Example 106, 3-[(2-fluoro-4-iodophenyl)amino]-N-(3-hydroxybenzyl)-isonicotinamide] | < 1000 | –

More lines, main results first:

IC50 (human MEK1) [nM] | SMILES | other results
< 1000 | NC(=O)[C@H](CO)NC(=O)c1ccncc1Nc1ccc(I)cc1F [Example 112, N-(1-(S)-Carbamoyl-2-hydroxy-ethyl)-3-(2-fluoro-4-iodo-phenylamino)-isonicotinamide] | –
< 1000 | O=C(NCc1ccc(F)cc1)c1ccncc1Nc1ccc(I)cc1F [Example 108, N-(4-Fluoro-benzyl)-3-(2-fluoro-4-iodo-phenylamino)-iso-nicotinamide] | –
< 1000 | O=C(NC1(CO)CCCC1)c1ccncc1Nc1ccc(I)cc1F [Example 110, 3-(2-Fluoro-4-iodo-phenylamino)-N-(1-hydroxymethyl-cyclo-pentyl)-isonicotinamide] | –
< 1000 | CCC(CO)(CO)NC(=O)c1ccncc1Nc1ccc(I)cc1F [Example 114, N-(1,1-Bis-hydroxymethyl-propyl)-3-(2-fluoro-4-iodo-phenyl-amino)-isonicotin-amide] | –
< 1000 | O=C(NCC(F)(F)F)c1ccncc1Nc1ccc(I)cc1F [Example 109, 3-(2-Fluoro-4-iodo-phenylamino)-N-(2,2,2-trifluoro-ethyl)-isonicotinamide] | –
1000 to 10000 | O=C(O)c1ccncc1Nc1ccc(SC(F)(F)F)cc1 [Example 119, 3-(4-Trifluoromethylsulfanyl-phenylamino)-isonicotinic acid] | –
< 1000 | CCONC(=O)c1ccncc1Nc1ccc(Br)cc1F [Example 121, 3-[(4-Bromo-2-fluorophenyl)amino]-N-ethoxyisonicotinamide] | –
1000 to 10000 | COc1ccc(Nc2cnccc2C(=O)O)cc1 [Example 118, 3-(4-Methoxy-phenylamino)-isonicotinic acid] | –
< 1000 | O=C(N[C@H]1CCCC[C@@H]1O)c1ccncc1Nc1ccc(I)cc1F (relative stereo) [Example 113, 3-(2-Fluoro-4-iodo-phenylamino)-N-(trans-2-hydroxy-cyclohexyl)-isonicotinamide] | –
< 1000 | O=C(O)c1ccnc(Cl)c1Nc1ccc(Br)cc1F [Example 125, 3-(4-Bromo-2-fluoro-phenylamino)-2-chloro-isonicotinic acid] | –
< 1000 | Cc1cc(C(=O)O)c(Nc2ccc(I)cc2F)cn1 [Example 111, 5-[(2-fluoro-4-iodophenyl)amino]-2-methylisonicotinic acid] | –
1000 to 10000 | O=c1[nH]nc(-c2ccncc2Nc2ccc(Br)cc2F)o1 [Example 126, 5-[3-(4-Bromo-2-fluoro-phenylamino)-pyridin-4-yl]-3H-[1,3,4]oxadiazol-2-one] | –
< 1000 | O=C(NCCCN1CCNCC1)c1ccncc1Nc1ccc(I)cc1F [Example 116, 3-(2-Fluoro-4-iodo-phenylamino)-N-(3-piperazin-1-yl-propyl)-isonicotinamide] | –
< 1000 | CCOC(CCCNC(=O)c1ccncc1Nc1ccc(I)cc1F)OCC [Example 107, N-(4,4-diethoxybutyl)-3-[(2-fluoro-4-iodophenyl)amino]-isonicotinamide] | –
